Test results published in publication PMC9354042, “Discovery of BRAF/HDAC Dual Inhibitors Suppressing Proliferation of Human Colorectal Cancer Cells” (Frontiers in Chemistry, 2022).
Like-named read-outs stand apart in the source and are kept apart here.

Key:
[1] = target: T1, HDAC6 (Homo sapiens, UniProt Q9UBN7); assay: HDAC6 fluorescent-based enzymatic activity assay; assay type: biochemical
T1 construct: purchased BPS Bioscience
T1 sequence (Q9UBN7 1-1215): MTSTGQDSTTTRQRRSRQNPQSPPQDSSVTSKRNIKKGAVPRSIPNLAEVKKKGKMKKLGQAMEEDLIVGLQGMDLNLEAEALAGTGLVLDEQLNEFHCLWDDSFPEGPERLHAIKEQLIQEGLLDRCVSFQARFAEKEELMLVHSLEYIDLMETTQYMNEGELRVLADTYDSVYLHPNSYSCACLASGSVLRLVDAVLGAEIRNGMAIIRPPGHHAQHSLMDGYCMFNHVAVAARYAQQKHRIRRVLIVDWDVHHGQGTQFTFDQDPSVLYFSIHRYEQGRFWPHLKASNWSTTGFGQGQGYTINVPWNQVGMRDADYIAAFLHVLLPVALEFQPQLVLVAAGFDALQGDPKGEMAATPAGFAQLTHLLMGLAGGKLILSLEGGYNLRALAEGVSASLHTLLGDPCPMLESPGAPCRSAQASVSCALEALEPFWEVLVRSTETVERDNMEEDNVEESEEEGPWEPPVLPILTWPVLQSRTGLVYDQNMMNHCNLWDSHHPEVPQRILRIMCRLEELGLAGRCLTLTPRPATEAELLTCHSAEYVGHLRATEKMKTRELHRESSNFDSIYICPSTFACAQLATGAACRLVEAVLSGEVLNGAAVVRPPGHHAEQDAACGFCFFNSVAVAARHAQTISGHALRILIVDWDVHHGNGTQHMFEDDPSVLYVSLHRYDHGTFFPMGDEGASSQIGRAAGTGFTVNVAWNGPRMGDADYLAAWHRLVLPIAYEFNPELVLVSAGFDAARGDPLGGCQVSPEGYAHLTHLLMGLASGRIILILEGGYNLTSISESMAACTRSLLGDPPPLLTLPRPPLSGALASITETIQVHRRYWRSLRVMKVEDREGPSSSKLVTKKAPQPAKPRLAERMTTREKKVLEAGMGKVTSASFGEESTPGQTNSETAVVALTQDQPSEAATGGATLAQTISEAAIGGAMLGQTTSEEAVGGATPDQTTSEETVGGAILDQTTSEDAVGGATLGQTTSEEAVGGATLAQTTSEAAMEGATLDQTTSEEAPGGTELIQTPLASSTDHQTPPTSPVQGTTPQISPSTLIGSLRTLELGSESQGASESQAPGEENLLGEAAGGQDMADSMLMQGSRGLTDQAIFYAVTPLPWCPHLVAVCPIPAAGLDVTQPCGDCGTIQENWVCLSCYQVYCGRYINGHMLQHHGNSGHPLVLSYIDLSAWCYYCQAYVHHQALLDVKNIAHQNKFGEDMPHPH
Protocol: (§1) The purified recombinant Human HDACs and their corresponding substrates were purchased from BPS Bioscience (BPS Bioscience Inc., United States). The assays were carried out in a 384-well format using the BPS fluorescent–based HDAC activity assay according to the manufacturer’s protocol. In brief, […] of the HDAC reaction mixture was composed of HDAC assay buffer, […] BSA, serial diluted test compounds, appropriate concentration of HDACs, and […] fluorogenic substrate, the mixture was incubated at 37°C for 60 min, and then stopped by the addition of developer containing trypsin and TSA. After 20 min of incubation, the fluorescence was detected at the excitation wavelength of 360 nm and the emission wavelength of 460 nm using the EnVision Multilabel Reader (PerkinElmer Inc., United States). The analytical software, GraphPad Prism 5.0 (GraphPad Software, Inc., United States) was used to generate IC50 value via non-linear regression analysis.

[2] = tested on: HT-29 cells; assay: Antiproliferation CCK-8 assay, HT-29; assay type: cell-based; conditions: Homo sapiens; CCK-8, 72 h, HT-29 (BRAF^V600E); means of three independent experiments; read-out: Cellular IC50 HT-29
Protocol: HCT116 and HT-29 cells were obtained from the Shanghai Cell Bank (Type Culture Collection (TCC), Chinese Academy of Sciences) and cultured in DMEM (10–013-CVR, corning) supplemented with 10% fetal bovine serum (04-001-1A, BI), 1% penicillin/streptomycin (03-031-1B, BI).
The cells in the logarithmic phase were placed in 96-well plates (∼3000 cells/well) in a complete medium. After incubation overnight, the cells were exposed to the corresponding compounds or vehicle control at the indicated concentration for a further 72 h. Cell proliferation was evaluated using Cell Counting Kit 8 (CCK8, CK04, Dojindo Laboratories, Kumamoto, Japan). OD450 and OD650 were determined using a microplate reader. Absorbance rate (A) for each well was calculated as OD450 −OD650. […] Each IC50 value is expressed as mean ± SD. As is the absorbance rate of the test compound well, Ac is the absorbance rate of the well without either the cell or test compound, and Ab is the absorbance rate of the well with the cell and vehicle control.

[3] = target: T2, HDAC2 (Homo sapiens, UniProt Q92769); assay: HDAC2 fluorescent-based enzymatic activity assay; assay type: biochemical; conditions: Table 3 isoform panel; read-out: Enzyme inhibition HDAC2 (Class I)
T2 construct: purchased BPS Bioscience
T2 sequence (Q92769 whole entry, canonical isoform): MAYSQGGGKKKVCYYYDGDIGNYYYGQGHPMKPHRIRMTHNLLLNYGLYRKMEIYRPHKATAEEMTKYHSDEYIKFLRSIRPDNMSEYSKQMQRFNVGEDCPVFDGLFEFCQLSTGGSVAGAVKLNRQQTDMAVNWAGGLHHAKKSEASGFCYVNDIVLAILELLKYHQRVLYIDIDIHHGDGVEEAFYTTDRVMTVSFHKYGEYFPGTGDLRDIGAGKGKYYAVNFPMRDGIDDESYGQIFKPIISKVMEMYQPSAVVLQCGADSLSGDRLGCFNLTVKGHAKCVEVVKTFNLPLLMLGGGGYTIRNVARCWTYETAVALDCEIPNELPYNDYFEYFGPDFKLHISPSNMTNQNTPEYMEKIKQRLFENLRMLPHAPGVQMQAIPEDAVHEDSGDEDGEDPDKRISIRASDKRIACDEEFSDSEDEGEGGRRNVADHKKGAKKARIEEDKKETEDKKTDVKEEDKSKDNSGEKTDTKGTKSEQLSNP
Protocol: as §1

[4] = target: T3, HDAC3 (Homo sapiens, UniProt O15379); assay: HDAC3 fluorescent-based enzymatic activity assay; assay type: biochemical; conditions: Table 3 isoform panel; read-out: Enzyme inhibition HDAC3 (Class I)
T3 construct: purchased BPS Bioscience
T3 sequence (O15379 whole entry, canonical isoform): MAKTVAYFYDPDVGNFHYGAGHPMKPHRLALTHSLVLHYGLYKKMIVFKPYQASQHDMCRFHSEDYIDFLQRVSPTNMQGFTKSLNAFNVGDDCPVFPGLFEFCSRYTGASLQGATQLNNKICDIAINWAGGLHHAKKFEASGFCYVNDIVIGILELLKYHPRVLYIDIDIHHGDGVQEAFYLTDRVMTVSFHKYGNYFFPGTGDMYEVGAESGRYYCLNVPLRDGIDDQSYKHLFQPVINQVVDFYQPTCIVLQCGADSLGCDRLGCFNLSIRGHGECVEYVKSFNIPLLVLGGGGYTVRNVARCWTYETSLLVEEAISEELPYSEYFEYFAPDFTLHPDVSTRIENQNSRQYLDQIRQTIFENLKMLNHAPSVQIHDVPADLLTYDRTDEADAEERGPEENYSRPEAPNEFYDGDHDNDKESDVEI
T3 sequence (Q9Y618 395-489 partner limits assumed): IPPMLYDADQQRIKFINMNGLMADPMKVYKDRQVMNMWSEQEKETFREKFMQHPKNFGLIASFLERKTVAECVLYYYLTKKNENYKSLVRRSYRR
Protocol: as §1

[5] = target: T4, HDAC4 (Homo sapiens, UniProt P56524); assay: HDAC4 fluorescent-based enzymatic activity assay; assay type: biochemical; conditions: Table 3 isoform panel; read-out: Enzyme inhibition HDAC4 (Class IIA)
T4 construct: purchased BPS Bioscience
T4 sequence (P56524 whole entry, canonical isoform): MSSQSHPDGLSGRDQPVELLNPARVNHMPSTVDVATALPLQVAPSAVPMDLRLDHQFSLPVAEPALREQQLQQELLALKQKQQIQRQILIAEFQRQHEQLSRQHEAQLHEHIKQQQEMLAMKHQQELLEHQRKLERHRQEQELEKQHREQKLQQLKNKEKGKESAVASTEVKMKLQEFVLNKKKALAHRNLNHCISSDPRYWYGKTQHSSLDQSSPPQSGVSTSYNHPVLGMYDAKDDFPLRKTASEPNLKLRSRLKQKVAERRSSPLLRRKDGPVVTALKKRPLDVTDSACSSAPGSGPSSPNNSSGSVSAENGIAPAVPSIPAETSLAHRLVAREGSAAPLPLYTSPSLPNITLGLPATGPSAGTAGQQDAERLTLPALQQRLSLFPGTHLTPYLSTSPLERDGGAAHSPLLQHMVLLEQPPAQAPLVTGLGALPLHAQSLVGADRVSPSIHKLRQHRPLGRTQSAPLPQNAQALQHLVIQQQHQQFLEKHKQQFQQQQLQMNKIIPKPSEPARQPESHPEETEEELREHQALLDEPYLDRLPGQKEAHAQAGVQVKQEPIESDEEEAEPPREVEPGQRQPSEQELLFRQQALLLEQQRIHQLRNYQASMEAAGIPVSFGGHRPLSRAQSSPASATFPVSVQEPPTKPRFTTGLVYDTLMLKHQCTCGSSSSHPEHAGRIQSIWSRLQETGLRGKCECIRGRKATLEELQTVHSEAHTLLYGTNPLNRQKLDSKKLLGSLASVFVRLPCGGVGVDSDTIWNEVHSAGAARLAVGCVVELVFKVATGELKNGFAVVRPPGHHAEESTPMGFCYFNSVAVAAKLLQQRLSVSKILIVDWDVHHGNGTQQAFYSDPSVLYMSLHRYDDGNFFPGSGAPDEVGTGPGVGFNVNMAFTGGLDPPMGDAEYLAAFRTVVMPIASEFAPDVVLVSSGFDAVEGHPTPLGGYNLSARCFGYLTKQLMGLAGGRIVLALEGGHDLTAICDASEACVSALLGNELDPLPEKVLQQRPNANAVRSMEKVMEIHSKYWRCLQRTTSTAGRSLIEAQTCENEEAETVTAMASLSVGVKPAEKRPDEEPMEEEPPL
Protocol: as §1

[6] = tested on: Ac-histone H3, Ac-α-tubulin, p-ERK in HCT116 cells; assay: Western blot analysis of HDAC and RAF pathway in HCT116 cells; assay type: cell-based, human
Protocol: FIGURE 3 Characterization of dual inhibition of HDAC and RAF pathway. Western blot analysis of 14b in HCT116 cells (A) and in HT-29 cells (B). Cells were treated with 0 μM, 0.12 μM, 0.37 μM, 1.1 μM, 3.3 μM, and 10 μM of drugs and incubated for 6 h. The cell lysis was subjected to Western blot analysis.
The cells were treated with various concentrations of 14b for 6 h. Then, the cells were lysed using 1×SDS sample lysis buffer (CST recommended) with protease and phosphatase inhibitors. Cell lysates were loaded and electrophoresed onto 8–12% SDS-PAGE gel, and then the separated proteins were transferred to a PVDF film. The film was blocked with 5% BSA (Sigma-Aldrich, St. Louis, MO, United States) in a TBS solution containing 0.5% Tween-20 for 4 h at room temperature, then incubated with the corresponding primary antibody (1:1000–1:200) overnight at 4°C. After washing with TBST, HRP-conjugated secondary antibody was incubated for 2 h. The protein signals were visualized by the ECL Western Blotting Detection Kit (Thermo Scientific, Grand Island, NY, United States), and detected with Amersham Imager 600 system (GE, Boston, MA, United States).

HDAC6 inhibition fold more potent than class I isoforms ([1]; HDAC6 vs HDAC1, HDAC2, HDAC3, HDAC8): > 10 fold | HDAC6 inhibition fold more potent than class IIA HDACs ([1]; HDAC6 vs HDAC4, HDAC5, HDAC7): > 800 fold | IC50 ([1]; Table 1, read-out: Enzymatic IC50 HDAC6): 49.2 nM | IC50 ([1]; Table 3 isoform panel, read-out: Enzyme inhibition HDAC6 (Class IIB)): 49 nM | IC50 [2]: 310 nM | IC50 [3]: 747 nM | IC50 [4]: 913 nM | IC50 [5]: > 100000 nM
SMILES: CC(C)(C)c1nc(-c2cccc(NS(=O)(=O)c3c(F)cccc3F)c2F)c(-c2ccnc(NCCCCCCC(=O)NO)n2)s1 [14b, 7-{[4-(2-(Tert-Butyl)-4-(3-((2,6-Difluorophenyl)Sulfonamido)-2-Fluorophenyl)Thiazol-5-yl)Pyrimidin-2-yl]Amino}-N-Hydroxyheptanamide]
expression of BRAF ([6]; HCT116 cells): did not affect the expression of BRAF itself | phosphorylation of ERK (p-ERK) ([6]; HCT116 cells (wild-type BRAF, K-RAS G13D), 0.12-10 μM, 6 h): significantly inhibited phosphorylation of ERK | acetylated histone H3 (Ac-histone H3) ([6]; HCT116 cells, 0.12-10 μM, 6 h): upregulated | acetylated α-tubulin (Ac-α-tubulin) ([6]; HCT116 cells, 0.12-10 μM, 6 h): upregulated
